Key:
[1] = target: T1, HrBP1 (harpin-binding protein 1) (Nicotiana tabacum, UniProt Q5QJB2); assay: isothermal titration calorimetry
T1 construct: full-length ORF (831 bp, 276 aa) in pET28a NdeI/XhoI, E. coli BL21(DE3), HisTrap purified, tag removal not described; about 30 kDa on SDS-PAGE, oligomer about 180 kDa by SEC

[2] = target: T1, HrBP1 (harpin-binding protein 1); assay: isothermal titration calorimetry; conditions: pH 7.5, 25 °C, 20 mM Tris-HCl, 100 mM NaCl
[3] = target: the molecule itself; assay: SEC; Superdex 200 10/300 GL, 4°C, 20 mM Tris-HCl, 100 mM NaCl, pH 7.5; mass standards 17-440 kDa; run without and after adding the small molecule Q-R (larger oligomer with Q-R)

Cc1cccc2sc(N[C@@H](c3cccs3)P(=O)(Oc3ccccc3)Oc3ccccc3)nc12 [Q-R, (R)-diphenyl-1-(4-methylbenzothiazole-2-amino)-1-(thiphene-2-yl)-methylphosphonate]
Kd [1]: 1190 nM

CCOP(=O)(OCC)C(Nc1nc2c(C)cccc2s1)c1ccccc1F (stereo not drawn) [dufulin]
isothermal titration calorimetry [2]: weak binding occurred between the dufulin and HrBP1 protein

B1: harpin-binding protein 1 (HrBP1) from Nicotiana tabacum (natural protein, UniProt Q5QJB2 1-276, looked up)
chain: MASLLQYSTLPLSNNHCSSSLPSLTCHLSKRSNRNTQKLLEKKKYHIKKSLICQSGIDELAFIELPGTKEAKAELIGSLKLKLLSAVSGLNRGLAASEEDLKKADAAAKELESCAGAVDLSADLDKLQGRWKLIYSSAFSGRTLGGSRPGPPTGRLLPITLGQVFQRIDVLSKDFDNIVELELGAPWPLPPAELTATLAHKFELIGSSTIKITFEKTTVKTTGILSQLPPFEVPRIPDQLRPPSNTGSGEFEVTYIDSDTRVTRGDRGELRVFVIS
notes: full-length gene of 831 bp, 276 amino acids, cloned between NdeI and XhoI of pET28a; tryptic peptides matched UniProt Q5QJB2; Removal of the tag is not described; also called HrBP1 recombinant protein; source: E. coli BL21(DE3), pET28a-HrBP1, purified (HisTrap column, desalting column, ultrafiltration)
binding result [3]: binds
